# Source: patent publication US20150030667A1, “COMPOSITIONS AND METHODS FOR TREATING U[…]” (priority 2013, published 2015)
# Tested on: bladder (detrusor) contractility of BoNT treated rats
# Conditions: rat, in vivo
smiles,measurement,value
CN(C)C(=O)Oc1cccc([N+](C)(C)C)c1 [neostigmine],amplitude of contraction,raised
same,baseline pressure,without affecting baseline pressure
same,contractility,improves contractility
same,duration of contraction,significant increase
same,duration of voiding contraction,increase
same,interval between bladder contractions,decrease
